Assay results as given in patent publication US5955055A, “Synthetic peptides for arterial imaging at vascular imaging sites” (New England Deaconess Hospital Corporation, priority 1995, dated 1999).
Ends that are not written are not given here.

test system: anti-SP-4 antiserum; assay: ELISA for immunological cross-reactivity with anti-SP-4 antiserum; format: binding, rabbit; settings: ELISA plates coated with LDL or peptide, 100 ng per well
Experimental: To determine whether the molecular conformation or structure of the synthetic apoB peptides was analogous to the conformation of the apoB moiety of LDL, a polyclonal antiserum was raised to each peptide and its ability to bind LDL tested. Antiserum raised to human LDL was used as the control. To produce anti-synthetic peptide antisera, purified synthetic peptide was dissolved in PBS, pH 7.4 at a concentration of 1 mg/ml. The peptide solution was mixed with an equal volume of complete Freund's adjuvant and vortexed thoroughly until a thick emulsion was produced. New Zealand White rabbits (Millbrook Farms, Amherst, Mass.) were injected with a total of 0.5 mg synthetic peptide administered subcutaneously in the four dorsal quadrants. The rabbits were given a boost (injected at the same sites) with 0.5 mg peptide emulsified in incomplete Freund's adjuvant 2-3 weeks later. Eight to ten days after the first boost, the animals were given a second, identical boost and were bled of 30 ml 8 to 10 days later. To test for immunological cross-reactivity microtiter plates (Immulon II Dynatech Labs, Chantilly, Va.) were coated with the purified synthetic peptide or LDL by an overnight incubation at 4° C. with 100 ng peptide per well in 50 mM carbonate, pH 9.6, and blocked for nonspecific binding with an additional overnight incubation with phosphate-buffered saline, pH 7.4 (PBS), 1% bovine serum albumin (BSA). Control wells were coated with BSA alone. After washing twice with PBS, the wells were filled with serial dilutions (1:10 to 1:100,000 made in PBS, 3% BSA) of a rabbit polyclonal antibody generated against the synthetic peptide(s) and incubated for 45 minutes at room temperature. Following thorough washing (3× with PBS, 0.1% BSA), the wells were filled with a 1:2000 dilution of goat anti-rabbit IgG-horseradish peroxidase conjugate (Atlantic Antibodies, Scarborough, Me.). After a final wash, the wells were filled with 3,3'-5,5'-tetramethybenzidine (TMB) microwell peroxidase substrate (Kirkegaard and Perry Labs, Gaithersburg, Md.) and read at 650 nm every two minutes on an ELISA-5 automated plate reader (Physica, New York, N.Y.). Results (see, e.g., FIGS. 4 and 5) are expressed as the initial velocity of substrate conversion (change in OD650 /hr), which is determined by a linear regression of 15 data points per well. Each data point represents the average of three measured data points from the same plate, run at the same time.

Substance	Binding of anti-SP-4 antiserum to coated antigen
YKLALEAARLLADAEGAK-NH2 [SP-6, H2 N-Tyr-Lys-Leu-Ala-Leu-Glu-Ala-Ala-Arg-Leu-Leu-Ala-Asp-Ala-Glu-Gly-Ala-Lys- CONH2]	shown to bind
Ac-YKLALEAARLLANAEGAK-NH2 [SP-8A, CH3 CONH-Tyr-Lys-Leu-Ala-Leu-Glu-Ala-Ala-Arg-Leu-Leu-Ala-Asn-Ala-Glu-Gly-Ala-Lys-CONH2]	shown to bind
YKLALEAARLLANAEGAK-NH2 [SP-8, H2 N-Tyr-Lys-Leu-Ala-Leu-Glu-Ala-Ala-Arq-Leu-Leu-Ala-Asn-Ala-Glu-Gly-Ala-Lys- CONH2]	shown to bind
Ac-YKLALEAARLLADAEGAK-NH2 [SP-6A, CH3 CONH-Tyr-Lys-Leu-Ala-Leu-Glu-Ala-Ala-Arg-Leu-Leu-Ala-Asp-Ala-Glu-Gly-Ala-Lys-CONH2]	shown to bind
Ac-YRALVDYLKFVTQL-NH2 [SP-12A, CH3 CONH-Tyr-Arg-Ala-Leu-Val-Asp-Tyr-Leu-Lys-Phe-Val-Thr-Gln-Leu-CONH2]	shown to bind
Ac-YRALVDTLKFVTQAEGAK-NH2 [SP-4A, CH3 CONH-Tyr-Arg-Ala-Leu-Val-Asp-Thr-Leu-Lys-Phe-Val-Thr-Gln-Ala-Glu-Gly-Ala-Lys-CONH2]	shown to bind
YRALVDTLKFVTQAEGAK-NH2 [SP-4, NH2 -Tyr-Arg-Ala-Leu-Val-Asp-Thr-Leu-LYs-Phe-Val-Thr-Gln-Ala-Glu-Gly-Ala-Lys-CONH2]	shown to bind
Ac-YRALVDTLK-NH2 [SP-14A, CH3 CONH-Tyr-Arg-Ala-Leu-Val-Asp-Thr-Leu-Lys-CONH2]	shown to bind

test system: not listed separately; assay: Plasma decay of 125I-labelled synthetic peptide after injection into the marginal ear vein; format: in vivo, rabbit; settings: at four hours
Experimental: Each labelled synthetic peptide preparation (containing, for example, 150 to 400 or more μCi of ^125 I-labelled peptide) in column elution buffer was injected into the marginal ear vein of the ballooned and healing New Zealand white rabbits or WHHL rabbits. Serial blood samples were obtained from the opposite ear during the ensuing 0-24 hours and were analyzed for radioactivity. The labelled peptide concentrations in the blood samples that were withdrawn over the first 10 minutes after injection were extrapolated to zero time to determine the time zero radioactivity in the calculation of average plasma radioactivity. […] Peptides SP15a, SP17, SP19a, SP21a, SP28, SP34a, and SP30 were cleared rapidly from the plasma with half-lives of about one minute or less; after one hour, the plasma levels were less than 10% of the injected dose and fell by an additional 1% over the next three hours. Peptides SP15a, SP17, SP21a, SP28, SP34a, and SP30 leveled off to a plasma level of 3-6%; peptide SP19a cleared more quickly and leveled off to a concentration of 0.3% (at four hours).
Control peptides used were SP-2 (part of the heparin and LDL receptor binding site of apolipoprotein E) and SP-11A which is a receptor and heparin binding domain of apolipoprotein B. To compare the relative accumulation of the ^125 I-labelled synthetic peptides in the aorta and adrenal gland, it was necessary to correct for differences in mean plasma concentration of the labelled compounds. The mean concentration of synthetic peptide-associated ^125 I radioactivity was calculated by numerical integration of the plasma decay curves and division by the time since injection of the isotope.

Substance	Plasma level at which the peptide leveled off
Ac-YRALVDTEFKVKQEAGAK-NH2 [SP-21a, CH3 CONH-Tyr-Arg-Ala-Leu-Val-Asp-Thr-Glu-Phe-Lys-Val-Lys-Gln-Glu-Ala-Gly-Ala-Lys-CONH2]	3-6%
YVGVAPGVGVAPGVGVAPG [SP-28, H2 N-Tyr-Val-Gly-Val-Ala-Pro-Gly-val-Gly-Val-Ala-Pro-Gly-Val-Gly-Val-Ala-Pro- Gly-OH]	3-6%
Ac-YVLDEFREKLNEELEALKQK-NH2 [SP-34a]	3-6%
YVPGVGVPGVGVPGVGVPGVG-NH2 [SP-30, H2 N-Tyr-Val-Pro-Gly-Val-Gly-Val-Pro-Gly-Val-Gly-Val-Pro-Gly-Val-Gly-Val-Pro- Gly-Val-Gly-CONH2]	3-6%
YAALDLNAVANKIADFEL-NH2 [SP-17, H2 N-Tyr-Ala-Ala-Leu-Asp-Leu-Asn-Ala-Val-Ala-Asn-Lys-Ile-Ala-Asp-Phe-Glu-Leu- CONH2]	3-6%
Ac-YRALVDTLKFVTEQAKGA-NH2 [SP-19a, CH3 CONH-Tyr-Arg-Ala-Leu-Val-Asp-Thr-Leu-Lys-Phe-Val-Thr-Glu-Gln-Ala-Lys-Gly-Ala-CONH2]	0.3%
Ac-YAKFRETLEDTRDRMY-NH2 [SP-15a, CH3 CONH-Tyr-Ala-Lys-Phe-Arg-Glu-Thr-Leu-Glu-Asp-Thr-Arg-Asp-Arg-Met-Tyr-CONH2]	3-6%
